Data on 16 molecules can be found in ChEMBL document CHEMBL1144385, “Solid-phase synthesis and antibacterial evaluations of N-demethylvancomycin derivatives” (2005).

Common to all, as to assay type: functional
For assay [1], the system named is Staphylococcus aureus. Description: Minimum inhibitory concentration against growth of Methicillin resistant […] aureus.
For assay [2], the system named is Enterococcus faecalis. As to the kind of experiment: Minimum inhibitory concentration against growth of vancomycin-resistant Enterococcus faecalis (ATCC 51299).
Assay [3] deals with Staphylococcus aureus. Description: Minimum inhibitory concentration against growth of […] aureus (ATCC 29213).
The test system of assay [4] is Enterococcus faecalis. As to the kind of experiment: Minimum inhibitory concentration against growth of Enterococcus faecalis (ATCC 29212).

Values after ≈ are worked out from the molar mass of the structure shown.

For `CCC(CC)N[C@H](CC(C)C)C(=O)N[C@H]1C(=O)N[C@@H](CC(N)=O)C(=O)N[C@H]2C(=O)N[C@H]3C(=O)N[C@H](C(=O)N[C@H](C(=O)NCC(=O)O)c4cc(O)cc(O)c4-c4cc3ccc4O)[C@H](O)c3ccc(c(Cl)c3)Oc3cc2cc(c3O[C@@H]2O[C@@H](CO)[C@@H](O)[C@H](O)[C@@H]2O[C@H]2C[C@](C)(Nc3ccc(F)cc3)[C@H](O)[C@H](C)O2)Oc2ccc(cc2Cl)[C@H]1O`, the minimal inhibitory concentration (MIC) in the assay with Staphylococcus aureus [1], in the assay with Enterococcus faecalis [2], in the assay on Staphylococcus aureus [3] and with Enterococcus faecalis [4] was greater than 10 mg/L throughout.
As to `CC(C)C[C@@H](N)C(=O)N[C@H]1C(=O)N[C@@H](CC(N)=O)C(=O)N[C@H]2C(=O)N[C@H]3C(=O)N[C@H](C(=O)N[C@H](C(=O)NCC(=O)O)c4cc(O)cc(O)c4-c4cc3ccc4O)[C@H](O)c3ccc(c(Cl)c3)Oc3cc2cc(c3O[C@@H]2O[C@@H](CO)[C@@H](O)[C@H](O)[C@@H]2O[C@H]2C[C@](C)(Nc3ccc(Cl)cc3)[C@H](O)[C@H](C)O2)Oc2ccc(cc2Cl)[C@H]1O`, the minimum inhibitory concentration (MIC) against Staphylococcus aureus [1] is 5 mg/L (≈ 3.12 µM); against Enterococcus faecalis [2], greater than 10 mg/L; in the assay with Staphylococcus aureus [3], 5 mg/L (≈ 3.12 µM); against Enterococcus faecalis [4], 10 mg/L (≈ 6.24 µM).
For `CC(C)C[C@@H](Nc1ccc(F)cc1)C(=O)N[C@H]1C(=O)N[C@@H](CC(N)=O)C(=O)N[C@H]2C(=O)N[C@H]3C(=O)N[C@H](C(=O)N[C@H](C(=O)NCC(=O)O)c4cc(O)cc(O)c4-c4cc3ccc4O)[C@H](O)c3ccc(c(Cl)c3)Oc3cc2cc(c3O[C@@H]2O[C@@H](CO)[C@@H](O)[C@H](O)[C@@H]2O[C@H]2C[C@](C)(Nc3ccc(F)cc3)[C@H](O)[C@H](C)O2)Oc2ccc(cc2Cl)[C@H]1O`, the MIC against Staphylococcus aureus [1], in the assay with Enterococcus faecalis [2], against Staphylococcus aureus [3] and with Enterococcus faecalis [4] was greater than 10 mg/L throughout.
As for `CCCN[C@H](CC(C)C)C(=O)N[C@H]1C(=O)N[C@@H](CC(N)=O)C(=O)N[C@H]2C(=O)N[C@H]3C(=O)N[C@H](C(=O)N[C@H](C(=O)NCC(=O)O)c4cc(O)cc(O)c4-c4cc3ccc4O)[C@H](O)c3ccc(c(Cl)c3)Oc3cc2cc(c3O[C@@H]2O[C@@H](CO)[C@@H](O)[C@H](O)[C@@H]2O[C@H]2C[C@](C)(Nc3ccc(Cl)cc3)[C@H](O)[C@H](C)O2)Oc2ccc(cc2Cl)[C@H]1O`, the minimum inhibitory concentration (MIC) was 10 mg/L (≈ 6.08 µM) in the assay with Staphylococcus aureus [1], greater than 10 mg/L with Enterococcus faecalis [2], 10 mg/L (≈ 6.08 µM) with Staphylococcus aureus [3] and greater than 10 mg/L in the assay with Enterococcus faecalis [4].
Consider `CCCN(CCC)[C@H](CC(C)C)C(=O)N[C@H]1C(=O)N[C@@H](CC(N)=O)C(=O)N[C@H]2C(=O)N[C@H]3C(=O)N[C@H](C(=O)N[C@H](C(=O)NCC(=O)O)c4cc(O)cc(O)c4-c4cc3ccc4O)[C@H](O)c3ccc(c(Cl)c3)Oc3cc2cc(c3O[C@@H]2O[C@@H](CO)[C@@H](O)[C@H](O)[C@@H]2O[C@H]2C[C@](C)(Nc3ccc(F)cc3)[C@H](O)[C@H](C)O2)Oc2ccc(cc2Cl)[C@H]1O`, for which the minimum inhibitory concentration (MIC) with Staphylococcus aureus [1], with Enterococcus faecalis [2], in the assay with Staphylococcus aureus [3] and against Enterococcus faecalis [4] was greater than 10 mg/L throughout.
Take `CCCN(CCC)[C@H](CC(C)C)C(=O)N[C@H]1C(=O)N[C@@H](CC(N)=O)C(=O)N[C@H]2C(=O)N[C@H]3C(=O)N[C@H](C(=O)N[C@H](C(=O)NCC(=O)O)c4cc(O)cc(O)c4-c4cc3ccc4O)[C@H](O)c3ccc(c(Cl)c3)Oc3cc2cc(c3O[C@@H]2O[C@@H](CO)[C@@H](O)[C@H](O)[C@@H]2O[C@H]2C[C@](C)(Nc3ccc(OC)cc3)[C@H](O)[C@H](C)O2)Oc2ccc(cc2Cl)[C@H]1O`: the minimal inhibitory concentration (MIC) with Staphylococcus aureus [1] is 10 mg/L (≈ 5.94 µM); with Enterococcus faecalis [2], greater than 10 mg/L; in the assay with Staphylococcus aureus [3] it was greater than 10 mg/L; against Enterococcus faecalis [4], greater than 10 mg/L.
For `CCC(CC)N[C@H](CC(C)C)C(=O)N[C@H]1C(=O)N[C@@H](CC(N)=O)C(=O)N[C@H]2C(=O)N[C@H]3C(=O)N[C@H](C(=O)N[C@H](C(=O)NCC(=O)O)c4cc(O)cc(O)c4-c4cc3ccc4O)[C@H](O)c3ccc(c(Cl)c3)Oc3cc2cc(c3O[C@@H]2O[C@@H](CO)[C@@H](O)[C@H](O)[C@@H]2O[C@H]2C[C@](C)(Nc3cccnc3)[C@H](O)[C@H](C)O2)Oc2ccc(cc2Cl)[C@H]1O`, the minimum inhibitory concentration (MIC) against Staphylococcus aureus [1], against Enterococcus faecalis [2], in the assay on Staphylococcus aureus [3] and in the assay on Enterococcus faecalis [4] was greater than 10 mg/L in each case.
As to `CC(C)C[C@H](C(=O)N[C@H]1C(=O)N[C@@H](CC(N)=O)C(=O)N[C@H]2C(=O)N[C@H]3C(=O)N[C@H](C(=O)N[C@H](C(=O)NCC(=O)O)c4cc(O)cc(O)c4-c4cc3ccc4O)[C@H](O)c3ccc(c(Cl)c3)Oc3cc2cc(c3O[C@@H]2O[C@@H](CO)[C@@H](O)[C@H](O)[C@@H]2O[C@H]2C[C@](C)(N)[C@H](O)[C@H](C)O2)Oc2ccc(cc2Cl)[C@H]1O)N(C)C(=O)OCC1c2ccccc2-c2ccccc21`, the MIC in the assay on Staphylococcus aureus [1] is 10 mg/L (≈ 5.79 µM); with Enterococcus faecalis [2] it was greater than 10 mg/L; with Staphylococcus aureus [3], 10 mg/L (≈ 5.79 µM); with Enterococcus faecalis [4], 10 mg/L (≈ 5.79 µM).
For `CCC(CC)N[C@H](CC(C)C)C(=O)N[C@H]1C(=O)N[C@@H](CC(N)=O)C(=O)N[C@H]2C(=O)N[C@H]3C(=O)N[C@H](C(=O)N[C@H](C(=O)NCC(=O)O)c4cc(O)cc(O)c4-c4cc3ccc4O)[C@H](O)c3ccc(c(Cl)c3)Oc3cc2cc(c3O[C@@H]2O[C@@H](CO)[C@@H](O)[C@H](O)[C@@H]2O[C@H]2C[C@](C)(Nc3ccc(OC)cc3)[C@H](O)[C@H](C)O2)Oc2ccc(cc2Cl)[C@H]1O`, the MIC with Staphylococcus aureus [1], against Enterococcus faecalis [2], against Staphylococcus aureus [3] and against Enterococcus faecalis [4] was greater than 10 mg/L in each case.
In the case of `CCCN[C@H](CC(C)C)C(=O)N[C@H]1C(=O)N[C@@H](CC(N)=O)C(=O)N[C@H]2C(=O)N[C@H]3C(=O)N[C@H](C(=O)N[C@H](C(=O)NCC(=O)O)c4cc(O)cc(O)c4-c4cc3ccc4O)[C@H](O)c3ccc(c(Cl)c3)Oc3cc2cc(c3O[C@@H]2O[C@@H](CO)[C@@H](O)[C@H](O)[C@@H]2O[C@H]2C[C@](C)(Nc3ccc(-c4ccccc4)cc3)[C@H](O)[C@H](C)O2)Oc2ccc(cc2Cl)[C@H]1O`, the MIC against Staphylococcus aureus [1] was 5 mg/L (≈ 2.96 µM); against Enterococcus faecalis [2] it was greater than 10 mg/L; against Staphylococcus aureus [3], 5 mg/L (≈ 2.96 µM); against Enterococcus faecalis [4] it was 10 mg/L (≈ 5.93 µM).
Regarding `CCC(CC)N[C@H](CC(C)C)C(=O)N[C@H]1C(=O)N[C@@H](CC(N)=O)C(=O)N[C@H]2C(=O)N[C@H]3C(=O)N[C@H](C(=O)N[C@H](C(=O)NCC(=O)O)c4cc(O)cc(O)c4-c4cc3ccc4O)[C@H](O)c3ccc(c(Cl)c3)Oc3cc2cc(c3O[C@@H]2O[C@@H](CO)[C@@H](O)[C@H](O)[C@@H]2OC2C[C@](C)(NC(CC)CC)[C@H](O)[C@H](C)O2)Oc2ccc(cc2Cl)[C@H]1O` (single isomer, unassigned), the minimal inhibitory concentration (MIC) against Staphylococcus aureus [1], against Enterococcus faecalis [2], with Staphylococcus aureus [3] and against Enterococcus faecalis [4] was greater than 10 mg/L throughout.
In the case of `CN[C@H](CC(C)C)C(=O)N[C@H]1C(=O)N[C@@H](CC(N)=O)C(=O)N[C@H]2C(=O)N[C@H]3C(=O)N[C@H](C(=O)N[C@H](C(=O)NCC(=O)O)c4cc(O)cc(O)c4-c4cc3ccc4O)[C@H](O)c3ccc(c(Cl)c3)Oc3cc2cc(c3O[C@@H]2O[C@@H](CO)[C@@H](O)[C@H](O)[C@@H]2O[C@H]2C[C@](C)(NC(=O)OCC3c4ccccc4-c4ccccc43)[C@H](O)[C@H](C)O2)Oc2ccc(cc2Cl)[C@H]1O`, the MIC in the assay on Staphylococcus aureus [1] is 5 mg/L (≈ 2.89 µM); in the assay with Enterococcus faecalis [2] it was 5 mg/L (≈ 2.89 µM); in the assay on Staphylococcus aureus [3], greater than 10 mg/L; against Enterococcus faecalis [4], 10 mg/L (≈ 5.79 µM).
For `CC(C)C[C@@H](N)C(=O)N[C@@H]1C(=O)N[C@@H](CC(N)=O)C(=O)N[C@H]2C(=O)N[C@H]3C(=O)N[C@H](C(=O)N[C@H](C(=O)O)c4cc(O)cc(O)c4-c4cc3ccc4O)[C@H](O)c3ccc(c(Cl)c3)Oc3cc2cc(c3O[C@@H]2O[C@H](CO)[C@@H](O)[C@H](O)[C@H]2O[C@H]2C[C@](C)(N)C(O)[C@H](C)O2)Oc2ccc(cc2Cl)[C@H]1O` (some centres undefined) [DEMETHYLVANCOMYCIN], the minimal inhibitory concentration (MIC) was less than 0.6 mg/L in the assay on Staphylococcus aureus [1], greater than 10 mg/L in the assay on Enterococcus faecalis [2], less than 0.6 mg/L against Staphylococcus aureus [3] and 2.5 mg/L (≈ 1.74 µM) with Enterococcus faecalis [4].
On to `CC(C)C[C@H](C(=O)N[C@H]1C(=O)N[C@@H](CC(N)=O)C(=O)N[C@H]2C(=O)N[C@H]3C(=O)N[C@H](C(=O)N[C@H](C(=O)NCC(=O)O)c4cc(O)cc(O)c4-c4cc3ccc4O)[C@H](O)c3ccc(c(Cl)c3)Oc3cc2cc(c3O[C@@H]2O[C@@H](CO)[C@@H](O)[C@H](O)[C@@H]2O[C@H]2C[C@](C)(Nc3cccnc3)[C@H](O)[C@H](C)O2)Oc2ccc(cc2Cl)[C@H]1O)N(CCc1ccccc1)CCc1ccccc1`, for which the MIC in the assay on Staphylococcus aureus [1], with Enterococcus faecalis [2], against Staphylococcus aureus [3] and with Enterococcus faecalis [4] was greater than 10 mg/L each time.
In the case of `CCC(CC)N[C@H](CC(C)C)C(=O)N[C@H]1C(=O)N[C@@H](CC(N)=O)C(=O)N[C@H]2C(=O)N[C@H]3C(=O)N[C@H](C(=O)N[C@H](C(=O)NCC(=O)O)c4cc(O)cc(O)c4-c4cc3ccc4O)[C@H](O)c3ccc(c(Cl)c3)Oc3cc2cc(c3O[C@@H]2O[C@@H](CO)[C@@H](O)[C@H](O)[C@@H]2O[C@H]2C[C@](C)(Nc3ccc(-c4ccccc4)cc3)[C@H](O)[C@H](C)O2)Oc2ccc(cc2Cl)[C@H]1O`, the minimal inhibitory concentration (MIC) in the assay on Staphylococcus aureus [1] was 2.5 mg/L (≈ 1.46 µM); in the assay with Enterococcus faecalis [2], greater than 10 mg/L; against Staphylococcus aureus [3] it was 5 mg/L (≈ 2.92 µM); with Enterococcus faecalis [4] it was 5 mg/L (≈ 2.92 µM).
As for `C/C=C/CN(C/C=C/C)[C@H](CC(C)C)C(=O)N[C@H]1C(=O)N[C@@H](CC(N)=O)C(=O)N[C@H]2C(=O)N[C@H]3C(=O)N[C@H](C(=O)N[C@H](C(=O)NCC(=O)O)c4cc(O)cc(O)c4-c4cc3ccc4O)[C@H](O)c3ccc(c(Cl)c3)Oc3cc2cc(c3O[C@@H]2O[C@@H](CO)[C@@H](O)[C@H](O)[C@@H]2O[C@H]2C[C@](C)(Nc3ccc(OC)cc3)[C@H](O)[C@H](C)O2)Oc2ccc(cc2Cl)[C@H]1O`, the minimal inhibitory concentration (MIC) in the assay with Staphylococcus aureus [1] is greater than 10 mg/L; in the assay with Enterococcus faecalis [2], greater than 10 mg/L; against Staphylococcus aureus [3] it was 10 mg/L (≈ 5.86 µM); with Enterococcus faecalis [4], greater than 10 mg/L.

One may read the MIC as the smallest concentration in the dilution series that meets the test's criterion for growth inhibition.
